Results from patent US6809115B2, “METHODS AND COMPOSITIONS FOR THE TREATMENT OF DIABETES, THE REDUCTION OF BODY FAT, IMPROVEMENT OF INSULIN SENSITIVITY, REDUCTION OF HYPERGLYCEMIA, AND REDUCTION OF HYPERCHOLESTEROLEMIA WITH CHROMIUM COMPLEXES, CONJUGATED FATTY ACIDS, AND/OR CONJUGATED FATTY ALCOHOLS” (Nutrition 21, Inc., priority 2000, dated 2004).

Legend:
[1] = patients treated for obesity; cited from earlier work
[2] = in vivo; cited from earlier work
[3] = rats, oral CrCl3, co-administered NSAID; cited from earlier work
[4] = system: human skeletal muscle culture; test: glucose uptake in human skeletal muscle culture; type: cell-based; details: FIGS. 1 and 2, axis in pico Moles per milligram
From the text: FIG. 2 graphs the effect of CP+CLA on glucose uptake in human skeletal muscle culture.
FIG. 3 illustrates the effect of CP+CLA on glucose uptake in human skeletal muscle culture.
Embodiments of the present invention include compositions which contain a conjugated fatty acid or conjugated fatty alcohol in combination with at least one chromium complex. Additionally, uses of the compositions disclosed herein to treat diabetes and/or obesity are provided. The co-administration of a conjugated fatty acid or conjugated fatty alcohol and at least one chromium complex provides a number of advantages over conventional pharmaceutical regimes for the treatment of diabetes and promotion of weight loss. One advantage of the compositions described herein over conventional treatment regimes for diabetes (such as injection of insulin) and weight loss is that compositions comprising a conjugated compound such as a conjugated fatty acid or conjugated fatty alcohol and at least one chromium complex have no known side effects while still providing efficacy in glucose uptake and weight loss. […] Those bars on FIGS. 1, 2, and 3 representing Chromium Picolinate (CP) and Conjugated Linoleic Acid (CLA) are measured in nanograms per milliliter.

[5] = cited from earlier work
[6] = growing animals; cited from earlier work

CC(C)CC(N(C)C)C1(c2ccc(Cl)cc2)CCC1 (stereo not drawn) [Sibutramine]
side effects [1]: increases blood pressure in a subset of patients

CCCCCCCCCCC[C@@H](C[C@@H]1OC(=O)[C@H]1CCCCCC)OC(=O)[C@H](CC(C)C)NC=O [orlistat]
side effects [1]: may have unpleasant gastrointestinal side effects

chromium picolinate
weight loss and body composition [2]: modest weight loss and changes in body composition

CC(=O)Oc1ccccc1C(=O)O [aspirin, acetylsalicylic acid]
chromium absorption [3]: facilitated

conjugated linoleic acid [CLA]
glucose uptake ([4]; basal (without insulin)): no effect | glucose uptake ([4]; stimulated (with insulin)): no effect | effect of CLA alone in obese subjects ([5]; added to standard diet and exercise): no effect | fat mass ([5]; subgroup who did not follow diet and exercise well and gained lean body mass, placebo subjects had increase): reduction in fat mass | reduction of fat gain [6]: 25%-70%
